Patent publication US8759532B2, “Pyridine and pyrimidine derivatives as phosphodiesterase 10 inhibitors” (AMGEN Inc., priority 2008, dated 2014)

Molecular target: PDE10 (Mus musculus, UniProt Q8CA95)
Assay: PDE10 enzyme inhibition, IMAP TR-FRET assay
Type: biochemical
Protocol: MPDE10A7 Enzyme Activity and Inhibition
An IMAP TR-FRET assay was used to analyze the enzyme activity (Molecular Devices Corp., Sunnyvale Calif.). 5 μL of serial diluted PDE10A (BPS Bioscience, San Diego, Calif.) or tissue homogenate was incubated with equal volumes of diluted fluorescein labeled cAMP or cGMP for 60 min in 384-well polystyrene assay plates (Corning, Corning, N.Y.) at room temperature. After incubation, the reaction was stopped by adding 60 μL of diluted binding reagents and was incubated for 3 hours to overnight at room temperature. The plates were read on an Envision (Perkin Elmer, Waltham, Mass.) for time resolved fluorescence resonance energy transfer. The data were analyzed with GraphPad Prism (La Jolla, Calif.).
To check the inhibition profile, 5 μL of serial diluted compounds were incubated with 5 μL of diluted PDE10 enzyme (BPS Bioscience, San Diego, Calif.) or tissue homogenate in a 384-well polystyrene assay plate (Corning, Corning, N.Y.) for 30 min at room temperature. After incubation, 10 μL of diluted fluorescein labeled cAMP or cGMP substrate were added and incubated for 60 min at room temperature. The reaction was stopped by adding 60 μL of diluted binding reagents and plates were read on an Envision (Perkin Elmer, Waltham, Mass.) for time resolved fluorescence resonance energy transfer. The data were analyzed with GraphPad Prism (La Jolla, Calif.).
The tabulated IC50 data represent an average IC50 data for each compound.

Chain of PDE10 (Q8CA95 whole entry, looked up): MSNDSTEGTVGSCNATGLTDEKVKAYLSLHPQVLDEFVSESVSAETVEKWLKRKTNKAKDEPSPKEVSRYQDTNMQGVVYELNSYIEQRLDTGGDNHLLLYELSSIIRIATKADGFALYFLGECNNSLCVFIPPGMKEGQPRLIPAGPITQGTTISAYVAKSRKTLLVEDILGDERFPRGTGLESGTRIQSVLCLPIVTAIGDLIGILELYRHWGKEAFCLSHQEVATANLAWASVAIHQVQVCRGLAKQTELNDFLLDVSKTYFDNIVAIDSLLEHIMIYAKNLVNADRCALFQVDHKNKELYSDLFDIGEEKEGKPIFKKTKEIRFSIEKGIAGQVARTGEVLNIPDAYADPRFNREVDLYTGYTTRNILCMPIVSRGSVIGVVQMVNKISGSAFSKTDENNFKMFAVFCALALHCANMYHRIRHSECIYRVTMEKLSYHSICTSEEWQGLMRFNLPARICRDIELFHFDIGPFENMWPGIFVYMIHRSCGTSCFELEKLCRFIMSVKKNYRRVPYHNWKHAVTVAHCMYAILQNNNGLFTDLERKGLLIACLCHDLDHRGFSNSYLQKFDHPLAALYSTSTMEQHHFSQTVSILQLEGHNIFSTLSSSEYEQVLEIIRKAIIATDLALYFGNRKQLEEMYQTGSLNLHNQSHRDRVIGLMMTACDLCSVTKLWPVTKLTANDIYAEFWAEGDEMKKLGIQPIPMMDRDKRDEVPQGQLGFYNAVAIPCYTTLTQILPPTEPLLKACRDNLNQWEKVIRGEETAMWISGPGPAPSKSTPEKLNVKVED

“(R)-4-(2-(4-(1H-benzo[d]imidazole-2-carbonyl)phenoxy)pyridin-3-yl)-1-methylpyrrolidin-2-one and (S)-4-(2-(4-(1H-benzo[d]imidazole-2-carbonyl)phenoxy)pyridin-3-yl)-1-methylpyrrolidin-2-one [Example 209]” showed an IC50 (IC50 class against PDE10, printed at end of example text) of less than 25 nM.

`FC(F)(F)c1cc(-c2cccnc2Oc2ccc(Cc3nc4ccccc4[nH]3)cc2)ccn1` [Example 62, 2-(4-(2′-(trifluoromethyl)-3,4′-bipyriidn-2-yloxy)benzyl)-1H-benzo[d]imidazole] gave an IC50 (IC50 class against PDE10, Table IA) of 100 to 250 nM.

`COc1cnccc1-c1cccnc1Oc1ccc(Nc2nc3ccccc3s2)cc1` [Example 165, N-(4-(3′-methoxy-3,4′-bipyriidn-2-yloxy)phenyl)benzo[d]thiazol-2-amine] was tested, and the IC50 (IC50 class against PDE10, Table IIA) was less than 25 nM.
